Laboratory results taken from US20230174584A1, “Antibiotic Compounds” (priority 2019, published 2023).
≈ marks a conversion by molar mass, not a printed value.

Key:
E. faecalis E7604 = assay: microbe, parasite or virus in culture; format: cell-based, Enterococcus faecalis; settings: E. faecalis E7604 VRE (vanB)
Procedure: (§1) The antibacterial activity of the compounds was tested against a panel of bacteria, including Gram-positive bacteria (S. aureus ATCC29213, S. aureus USA300, S. aureus LIM-2, NR-45881, S. aureus HIP13419, NR-46413, E. faecium E155, E. faecium E7314, E. faecium E980, E. faecalis E1246, E. faecalis E7406 and S. pneumonia 153). The antibacterial activity of the compounds was further tested against S. aureus NY-155, NR-46236, S. aureus HIP12864, NR-46074, S. aureus 880 (BR-VRSA), NR-49120, E. faecalis E1246, E. faecalis E7604, as well as some Gram-negative bacteria (Escherichia coli and Klebsiella pneumoniae). Minimum inhibitory concentrations (MICs) in μg/mL were performed according to the CLSI guidelines. From glycerol stocks, bacterial strains were cultured on blood agar plates and incubated at 37° C. for 18 h. A single colony was transferred to tryptic soy broth (TSB) with 0.002% polysorbate 80 (p80). For the Enterococcus, VISA and VRSA strains, the cultures were grown at 37° C. until the optical density of the suspension reached a level equivalent to the 0.5 McFarland standard. The bacterial suspensions were diluted in TSB with 0.002% p80 to reach a bacterial cell density of 10^6 CFU/mL. In case of the other (vancomycin-sensitive) S. aureus strains, the direct colony suspension method was used. For these strains, after transfer of the colonies to TSB with 0.002% p80, they were immediately diluted to 10^6 CFU/mL, instead of incubated prior to this dilution. In the case of S. pneumonia, direct colony suspension was used by immediately suspending multiple colonies from fresh blood agar plates in TSB+0.002% p80 to an OD600 of 0.5 and subsequent dilution to 10^6 CFU mL^−1 in TSB+0.002% p80+5% lysed horse blood. Antibiotic dilutions for this strains were also made in TSB+0.002% p80+5% lysed horse blood. Both agar and microplates containing S. pneumonia were incubated at 37° C. with 5% CO2 for 24 h with constant shaking (600 rpm). […] The cultures were grown to exponential phase (OD600=0.5) at 37° C. […] In polypropylene 96-well microtiter plates, test compounds were added in biological triplicates and serial diluted 2-fold by transfer and mixing from one well to the next to achieve a final volume of 50 μL per well. An equal volume of bacterial suspension (10^6 CFU mL^−1) was added to the wells. The plates were sealed with breathable membranes and incubated at 37° C. for 24 h with constant shaking (600 rpm). In polypropylene microtiter plates, 100 μL of the test compounds was added to the first row in biological triplicates, and 50 μL of media was added to the other wells. The compounds were subjected to serial dilution by transfer and mixing of 50 μL from one well to the next. Subsequently, 50 μL of bacterial suspension (10^6 CFU/mL) was added to the wells. The plates were sealed with breathable membranes and incubated at 37° C. for 24 h with constant shaking (600 rpm). Positive growth control consisted of wells with bacterial suspension and without antibiotic. Negative growth control consisted of solely media without bacterial suspension or antibiotic. The MICs were determined from the median of a minimum of triplicates.

E. faecalis E7406 = assay: microbe, parasite or virus in culture; format: cell-based, Enterococcus faecalis; settings: E. faecalis E7406 VRE (VanB)
Procedure: as §1

[1] = system: S. aureus HIP13419, NR-46413; assay: microbe, parasite or virus in culture; format: cell-based, Staphylococcus aureus; settings: S. aureus HIP13419, NR-46413 VRSA
Procedure: as §1

S. aureus USA300 = assay: microbe, parasite or virus in culture; format: cell-based, Staphylococcus aureus
Procedure: as §1

E. faecium E155 = assay: microbe, parasite or virus in culture; format: cell-based, Enterococcus faecium; settings: E. faecium E155 VRE (VanA)
Procedure: as §1

E. faecium E7314 = assay: microbe, parasite or virus in culture; format: cell-based, Enterococcus faecium; settings: E. faecium E7314 VRE (VanB)
Procedure: as §1

E. faecalis E1246 = assay: MIC assay; format: cell-based, Enterococcus faecalis
Procedure: as §1

[2] = system: S. aureus 880 (BR-VRSA), NR-49120; assay: MIC assay; format: cell-based, Staphylococcus aureus; settings: S. aureus 880, NR-49120 VRSA
Procedure: as §1

[3] = system: S. aureus LIM-2, NR-25881; assay: MIC assay; format: cell-based, Staphylococcus aureus; settings: S. aureus LIM-2, NR-25881 VISA
Procedure: as §1

S. aureus ATCC29213 = assay: MIC assay; format: cell-based, Staphylococcus aureus; settings: S. aureus ATCC29213 MSSA
Procedure: as §1

[4] = system: S. aureus NY-155, NR-46236; assay: MIC assay; format: cell-based, Staphylococcus aureus; settings: S. aureus NY-155, NR-46236 MRSA
Procedure: as §1

[5] = system: S. aureus HIP12864, NR-46074; assay: MIC assay; format: cell-based, Staphylococcus aureus; settings: S. aureus HIP12864, NR-46074 VISA
Procedure: as §1

MRSA USA300 = assay: MIC assay in the presence of sheep serum; format: cell-based, Staphylococcus aureus; settings: MRSA USA300, TSB + 0.002% p80 + 50% sheep serum
Procedure: as §1
The activity of the compounds was further assessed against MRSA USA300 strain in the presence of sheep) serum in another MIC assay. The cultures that grew in the presence of serum used TSB+0.002% P80+50% sheep serum as growth media, as opposed to normal MICs done in only TSB+0.002% P80.

S. pneumoniae 153 = assay: MIC assay; format: cell-based; settings: S. pneumoniae 153; TSB+0.002% p80+5% lysed horse blood
Procedure: as §1

E. faecium E980 = assay: MIC assay; format: cell-based, Enterococcus faecium; settings: E. faecium E980 VSE
Procedure: as §1

[6] = E. faecalis E1246 VRE (VanA), Table 7
[7] = E. faecalis E1246 VRE (vanA), Table 9

Compound	MIC (E. faecalis E7604)	MIC (E. faecalis E7406)	MIC [1]	MIC (S. aureus USA300; MRSA USA300, TSB + 0.002% p80)	MIC (S. aureus USA300; S. aureus USA300 MRSA)	MIC (E. faecium E155)	MIC (E. faecium E7314)	MIC (E. faecalis E1246; [6])	MIC (E. faecalis E1246; [7])	MIC [2]	MIC [3]	MIC (S. aureus ATCC29213)	MIC [4]	MIC [5]	MIC (MRSA USA300)	MIC (S. pneumoniae 153)	MIC (E. faecium E980)
CCCCCCNC(N)=Nc1ccc(CNC2(C)CC(OC3C(Oc4c5cc6cc4Oc4ccc(cc4Cl)C(O)C4NC(=O)C(NC(=O)C6NC(=O)C(CC(N)=O)NC(=O)C(NC(=O)C(CC(C)C)NC)C(O)c6ccc(c(Cl)c6)O5)c5ccc(O)c(c5)-c5c(O)cc(O)cc5C(C(=O)O)NC4=O)OC(CO)C(O)C3O)OC(C)C2O)cc1 (stereo not drawn) [Compound 4]	0.25 µg/mL (≈ 0.149 µM)	0.25 µg/mL (≈ 0.149 µM)	4 µg/mL (≈ 2.38 µM)	0.063 µg/mL	0.0625 µg/mL (≈ 0.0372 µM)	8 µg/mL (≈ 4.76 µM)	0.03125 µg/mL (≈ 0.0186 µM)	32 µg/mL (≈ 19 µM)	32 µg/mL (≈ 19 µM)	16 µg/mL (≈ 9.52 µM)	0.25 µg/mL (≈ 0.149 µM)	0.0625 µg/mL (≈ 0.0372 µM)	0.063 µg/mL (≈ 0.0375 µM)	0.5 µg/mL (≈ 0.298 µM)	0.063 µg/mL	0.016 µg/mL (≈ 0.00952 µM)	0.03125 µg/mL (≈ 0.0186 µM)
CCCCCCCCCCNC(N)=Nc1ccc(CN[C@@]2(C)C[C@H](O[C@H]3[C@H](Oc4c5cc6cc4Oc4ccc(cc4Cl)[C@@H](O)[C@@H](NC(=O)[C@@H](CC(C)C)NC)C(=O)N[C@@H](CC(N)=O)C(=O)N[C@H]6C(=O)N[C@H]4C(=O)N[C@H](C(=O)N[C@H](C(=O)O)c6cc(O)cc(O)c6-c6cc4ccc6O)[C@H](O)c4ccc(c(Cl)c4)O5)O[C@H](CO)[C@@H](O)[C@@H]3O)O[C@@H](C)[C@H]2O)cc1 [Compound 8]	≤0.008 µg/mL	≤0.007812 µg/mL	0.063 µg/mL (≈ 0.0363 µM)	0.063 µg/mL	0.0625 µg/mL (≈ 0.036 µM)	0.25 µg/mL (≈ 0.144 µM)	≤0.007812 µg/mL	1 µg/mL (≈ 0.576 µM)	1 µg/mL (≈ 0.576 µM)	0.25 µg/mL (≈ 0.144 µM)	0.016 µg/mL (≈ 0.00921 µM)	0.01562 µg/mL (≈ 0.00899 µM)	≤0.008 µg/mL	0.062 µg/mL (≈ 0.0357 µM)	0.125 µg/mL	≤0.008 µg/mL	0.01562 µg/mL (≈ 0.00899 µM)
CCCCCCCCCCCCNC(N)=Nc1ccc(CN[C@@]2(C)C[C@H](O[C@H]3[C@H](Oc4c5cc6cc4Oc4ccc(cc4Cl)[C@@H](O)[C@@H](NC(=O)[C@@H](CC(C)C)NC)C(=O)N[C@@H](CC(N)=O)C(=O)N[C@H]6C(=O)N[C@H]4C(=O)N[C@H](C(=O)N[C@H](C(=O)O)c6cc(O)cc(O)c6-c6cc4ccc6O)[C@H](O)c4ccc(c(Cl)c4)O5)O[C@H](CO)[C@@H](O)[C@@H]3O)O[C@@H](C)[C@H]2O)cc1 [Compound 9]	0.063 µg/mL (≈ 0.0357 µM)	0.0625 µg/mL (≈ 0.0354 µM)	0.125 µg/mL (≈ 0.0708 µM)	0.5 µg/mL	0.5 µg/mL (≈ 0.283 µM)	0.125 µg/mL (≈ 0.0708 µM)	0.03125 µg/mL (≈ 0.0177 µM)	1 µg/mL (≈ 0.567 µM)	1 µg/mL (≈ 0.567 µM)	0.25 µg/mL (≈ 0.142 µM)	0.5 µg/mL (≈ 0.283 µM)	0.125 µg/mL (≈ 0.0708 µM)	0.5 µg/mL (≈ 0.283 µM)	0.25 µg/mL (≈ 0.142 µM)	1 µg/mL	≤0.008 µg/mL	0.125 µg/mL (≈ 0.0708 µM)
CCCCCCCCCCCCCCNC(N)=Nc1ccc(CN[C@@]2(C)C[C@H](O[C@H]3[C@H](Oc4c5cc6cc4Oc4ccc(cc4Cl)[C@@H](O)[C@@H](NC(=O)[C@@H](CC(C)C)NC)C(=O)N[C@@H](CC(N)=O)C(=O)N[C@H]6C(=O)N[C@H]4C(=O)N[C@H](C(=O)N[C@H](C(=O)O)c6cc(O)cc(O)c6-c6cc4ccc6O)[C@H](O)c4ccc(c(Cl)c4)O5)O[C@H](CO)[C@@H](O)[C@@H]3O)O[C@@H](C)[C@H]2O)cc1 [Compound 10]	1 µg/mL (≈ 0.558 µM)	1 µg/mL (≈ 0.558 µM)	0.5 µg/mL (≈ 0.279 µM)	4 µg/mL	4 µg/mL (≈ 2.23 µM)	0.5 µg/mL (≈ 0.279 µM)	0.5 µg/mL (≈ 0.279 µM)	2 µg/mL (≈ 1.12 µM)	2 µg/mL (≈ 1.12 µM)	1 µg/mL (≈ 0.558 µM)	4 µg/mL (≈ 2.23 µM)	2 µg/mL (≈ 1.12 µM)	8 µg/mL (≈ 4.46 µM)	2 µg/mL (≈ 1.12 µM)	16 µg/mL	0.031 µg/mL (≈ 0.0173 µM)	0.5 µg/mL (≈ 0.279 µM)
Teicoplanin [reference compound]	0.125 µg/mL	0.125 µg/mL	32 µg/mL	0.5 µg/mL	0.5 µg/mL		0.25 µg/mL	>128 µg/mL	>128 µg/mL	16 µg/mL	16 µg/mL	0.5 µg/mL	0.5 µg/mL	4 µg/mL	2 µg/mL	0.031 µg/mL	0.5 µg/mL
